Results published in patent publication US20260048062A1, “FUSED AMINO PYRIMIDINE COMPOUNDS FOR TREATMENT OF PSYCHOSIS AND PSYCHOTIC DISORDERS” (Ovid Therapeutics Inc., priority 2024, published 2026).

Experiments:
KCC3 = target: T1, KCC3 (Homo sapiens, UniProt Q9UHW9); assay: Tl+ flux assay, HEK-293 cells expressing KCC3; assay type: cell-based; conditions: read-out: concentration at which effects on KCC3 were seen
T1 construct: expressed in transfected cells; host or cells: HEK-293
T1 sequence (Q9UHW9 1-1150): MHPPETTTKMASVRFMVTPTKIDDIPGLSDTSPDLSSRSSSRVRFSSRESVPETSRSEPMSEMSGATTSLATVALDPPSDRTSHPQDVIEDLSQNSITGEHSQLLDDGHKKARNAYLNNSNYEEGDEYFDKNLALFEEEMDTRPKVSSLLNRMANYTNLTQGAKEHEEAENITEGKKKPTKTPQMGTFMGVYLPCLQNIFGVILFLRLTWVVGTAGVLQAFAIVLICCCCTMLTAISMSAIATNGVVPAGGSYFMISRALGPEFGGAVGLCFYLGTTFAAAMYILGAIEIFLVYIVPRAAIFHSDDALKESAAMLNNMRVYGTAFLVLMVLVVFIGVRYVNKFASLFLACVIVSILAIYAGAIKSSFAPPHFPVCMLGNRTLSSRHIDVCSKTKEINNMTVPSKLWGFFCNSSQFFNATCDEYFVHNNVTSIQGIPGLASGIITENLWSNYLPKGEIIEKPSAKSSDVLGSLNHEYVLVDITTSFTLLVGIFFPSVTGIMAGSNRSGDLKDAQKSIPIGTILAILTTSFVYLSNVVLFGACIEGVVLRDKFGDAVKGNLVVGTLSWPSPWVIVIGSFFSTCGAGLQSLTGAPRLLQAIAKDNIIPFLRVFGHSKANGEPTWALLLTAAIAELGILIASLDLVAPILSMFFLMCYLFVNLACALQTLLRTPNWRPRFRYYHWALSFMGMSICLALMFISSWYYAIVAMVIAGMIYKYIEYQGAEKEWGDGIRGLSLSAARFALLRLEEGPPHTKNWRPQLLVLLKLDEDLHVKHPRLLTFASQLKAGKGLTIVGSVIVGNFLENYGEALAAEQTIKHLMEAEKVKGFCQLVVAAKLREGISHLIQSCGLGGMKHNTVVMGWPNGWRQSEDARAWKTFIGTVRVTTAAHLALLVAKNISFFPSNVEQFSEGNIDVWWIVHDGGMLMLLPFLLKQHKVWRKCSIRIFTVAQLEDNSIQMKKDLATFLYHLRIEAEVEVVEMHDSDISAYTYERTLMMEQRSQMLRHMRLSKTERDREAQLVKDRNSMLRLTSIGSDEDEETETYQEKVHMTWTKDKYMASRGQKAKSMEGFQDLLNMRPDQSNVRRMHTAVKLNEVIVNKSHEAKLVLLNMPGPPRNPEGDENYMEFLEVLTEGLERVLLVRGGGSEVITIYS
Method: FLIPR TI Flux assay. HEK-293 cells were washed with HBSS, and then incubated with loading buffer containing TI sensitive fluorescent dye (https://www.moleculardevices.com), 20 μM bumetanide 20 μM ouabain and 2.5 mM probenecid for 1 h at room temperature (RT) under control conditions or with drugs in the dark using a FlexStation 3 microplate reader (Molecular Devices) and imaged […] for 30 min. Stimulus buffer was added containing 5 mM K^+/0.5 mM Tl^+ and cells were imaged every 1.5 over a 190 second time course The initial rate Tl^+ uptake (Relative Fluorescence Units (RFU) per second) was determined following addition of the stimulus buffer as outlined previously (Conway et al., 2017, supra) (Lee et al., 2022, supra).
Compared to KCC2, effects on KCC3, KCC4, and NKCC1 were only seen at concentrations more than 35-fold that of KCC2 (>100 μM) (FIG. 1G).

KCC2 = target: T2, KCC2 (Homo sapiens, UniProt Q9H2X9); assay: Biotinylation, plasma membrane level of KCC2 in HEK-293 cells; assay type: cell-based; conditions: 15 min
T2 construct: expressed in transfected cells; host or cells: HEK-293 (ATCC CRL-1573), transient transfection
T2 sequence (Q9H2X9 1-1116 isoform Q9H2X9-2): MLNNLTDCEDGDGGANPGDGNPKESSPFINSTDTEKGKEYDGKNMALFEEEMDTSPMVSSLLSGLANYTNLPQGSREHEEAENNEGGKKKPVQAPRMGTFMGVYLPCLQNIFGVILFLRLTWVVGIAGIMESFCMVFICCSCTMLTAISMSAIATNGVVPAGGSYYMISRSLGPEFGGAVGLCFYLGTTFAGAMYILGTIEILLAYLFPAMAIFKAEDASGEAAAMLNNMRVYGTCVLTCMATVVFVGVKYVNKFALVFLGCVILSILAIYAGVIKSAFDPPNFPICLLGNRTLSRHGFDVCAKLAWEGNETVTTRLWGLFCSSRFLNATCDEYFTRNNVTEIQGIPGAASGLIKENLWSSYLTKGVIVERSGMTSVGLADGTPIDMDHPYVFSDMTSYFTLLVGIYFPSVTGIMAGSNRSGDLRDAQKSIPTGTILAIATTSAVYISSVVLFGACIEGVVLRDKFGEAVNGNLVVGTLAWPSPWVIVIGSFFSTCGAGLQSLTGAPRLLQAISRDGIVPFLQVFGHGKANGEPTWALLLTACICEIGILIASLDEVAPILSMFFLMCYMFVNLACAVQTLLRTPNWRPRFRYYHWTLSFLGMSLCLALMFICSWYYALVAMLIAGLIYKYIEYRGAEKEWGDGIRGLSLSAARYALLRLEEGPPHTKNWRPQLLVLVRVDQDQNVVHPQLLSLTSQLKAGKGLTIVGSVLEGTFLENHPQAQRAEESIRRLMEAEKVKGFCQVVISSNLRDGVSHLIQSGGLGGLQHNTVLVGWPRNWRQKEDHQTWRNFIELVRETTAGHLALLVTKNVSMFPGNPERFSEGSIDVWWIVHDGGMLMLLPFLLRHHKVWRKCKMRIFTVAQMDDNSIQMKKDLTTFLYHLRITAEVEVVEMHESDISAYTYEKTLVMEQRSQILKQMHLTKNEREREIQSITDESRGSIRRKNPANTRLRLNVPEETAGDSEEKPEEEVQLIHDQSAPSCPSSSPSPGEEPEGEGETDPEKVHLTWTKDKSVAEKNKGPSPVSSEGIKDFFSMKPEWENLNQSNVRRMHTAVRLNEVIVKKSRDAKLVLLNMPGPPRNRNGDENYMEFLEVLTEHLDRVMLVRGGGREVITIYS
Method: Cell Culture and biotinylation. HEK-293 cells were purchased from ATCC (CRL-1573) and transfected with human KCC2 and GFP expression plasmids using Lipofectamine 2000. Cells were utilized for experimentation 48-72 h following transfection. Cells were biotinylated at 4° C. using NHS-Biotin. Following lysis and purification on immobilized avidin beads, cell surface and total fractions were subject to immunoblotting as outlined previously (Conway et al., 2017, supra).
The reliability of the biotinylation procedure was assessed via immunoblotting with antibodies against the cytosolic protein actin. Actin was present in the total lysates but was absent from the surface fractions (FIG. 2C).

[1] = PK study, brain and plasma levels by LC-MS/MS; assay type: in vivo; conditions: mice
acute brain slices = assay: Late recurrent discharges in acute brain slices exposed to 0-Mg

Compound: C[C@@H]1CN(c2nc3c(c(Nc4ccc(C5CCCCC5)cc4)n2)COC3)CCO1 [Compound A, (R)—N-(4-cyclohexylphenyl)-2-(2-methylmorpholino)-5,7-dihydrofuro[3,4-d]pyrimidin-4-amine]
- EC50 (KCC3): > 100 µM
- level of KCC2 on the plasma membrane (surface/total) (KCC2; 0.3 μM): 94.5±8.4 % of control
- level of KCC2 on the plasma membrane (surface/total) (KCC2; 3 μM): 104.7±8.4 % of control
- time at which accumulation in the brain was detected ([1]; 50 mg/kg SC): 30 min
- time by which accumulation in the brain was evident ([1]; single 25 mg/kg IV bolus): ≤ 30 min
- development of late recurrent discharges (LRDs) (acute brain slices): reduced
